From patent US20230081034A1 (SHANGHAI BENEMAE PHARMACEUTICAL CORPORATION, priority 2020, published 2023)
Entries after “also recorded” stand apart in the source; their conditions may differ.

Legend:
[1] = tested on: patients with type 2 diabetes; assay: Randomized, double-blind, placebo-controlled clinical trial: subcutaneous beinaglutide before meals in combination with oral metformin, 12-week treatment; assay type: in vivo, human
Protocol: The inclusion criteria (if any) are as follows: Type 2 diabetic patients that met the World Health Organization's diagnostic criteria for type 2 diabetes (WHO, 1999) who received oral metformin treatment at dosages 1,000 mg/d that had stabilized for at least 3 months without treatment-related adverse events (e.g., vomiting) and voluntarily signed informed consent and with the following criteria:
In a randomized, double-blind, placebo-controlled clinical trial, 42 patients with type 2 diabetes treated with metformin monotherapy were randomly divided into a treatment group and a control group, with 21 cases in each group. All patients received metformin (Glucophage, purchased from Bristol-Myers Squibb) with original dosages. 200 μg of beinaglutide (from Benemae, treatment group) or a placebo (Benemae, control group) were administered to patients by one-time subcutaneous injection before each of three meals (600 μg/d) and followed up after a 12-week treatment.
Glycated hemoglobin (HbA1c), fasting blood glucose, 2 h postprandial blood glucose, BMI, and other effectiveness indicators were measured.

[2] = tested on: obese and overweight patients with type 2 diabetes; assay: Beinaglutide dosing regimen (continuous subcutaneous pump plus pre-meal doses), alone or with metformin / insulin glargine, one month; assay type: in vivo, human
Protocol: The beinaglutide dosing regimen included 1) a continuous subcutaneous administration of beinaglutide at 12.5 μg/h (300 μg/d) via a subcutaneous pump, 2) a one-time subcutaneous administration of beinaglutide at a dose of 100 μg 5 min before each of the three meals a day, and 3) optional administration of insulin glargine and/or metformin.
The patients treated were overweight/obesity in short disease course of type 2 diabetes. Two patients were female, and four patients were male. The patients were 30 to 55 years old with a course of disease between 0 and 5 years with glycated hemoglobin between 9% and 12%, and BMI between 26 and 30 kg/m^2.
Three patients were treated with beinaglutide monotherapy. Three patients were treated with a combinational therapy of beinaglutide and one or two third active ingredients (metformin, or metformin and glargine). Glycated hemoglobin (HbA1c) and weight were measured.
The patients were treated with the beinaglutide dosing regimen described herein, either alone or in combination with one or more third active ingredients. Some patients were treated with insulin (daily dosage of 0.5 u/kg) pump treatment alone or in combination with metformin (0.5 g tid) for a week right before starting the beinaglutide treatment.

[3] = treatment group, after 12 weeks beinaglutide 600 μg/d s.c. + metformin
[4] = Patient 2: insulin (0.5 u/kg) 1 week, then beinaglutide regimen + metformin (0.5 g tid) 1 month

His-Ala-Glu-Gly-Thr-Phe-Thr-Ser-Asp-Val-Ser-Ser-Tyr-Leu-Glu-Gly-Gln-Ala-Ala-Lys-Glu-Phe-Ile-Ala-Trp-Leu-Val-Lys-Gly-Arg [beinaglutide]
BMI, treatment group versus control group ([1]; 12 weeks, P>0.05): no statistic differences between the two groups
Postprandial blood glucose decreased by ([1]; 2 h postprandial, treatment group, beinaglutide 600 μg/d s.c. + metformin, 12 weeks, P<0.01): 4.18 mmol/L
HbA1c decreased by ([1]; treatment group (21 cases), metformin at original dosage + beinaglutide 200 μg s.c. before each of three meals (600 μg/d), 12 weeks, P<0.01): 1.17%
HbA1c and fasting blood glucose post-treatment versus control group ([1]; treatment group vs placebo + metformin, 12 weeks, P<0.05): even more significant decrease comparing with control group
HbA1c and fasting blood glucose post-treatment versus pre-treatment ([1]; treatment group, 12 weeks beinaglutide 600 μg/d + metformin): significant decrease comparing with the pre-treatment indicators
BMI change after treatment ([1]; treatment group, 12 weeks, P<0.05 (control group also decreased)): significant decrease in BMI
HbA1c post-treatment ([1]; treatment group, after 12 weeks beinaglutide 200 μg s.c. before each of three meals + metformin): 6.8%
Fasting blood glucose post-treatment [1, 3]: 7.45 mmol/L
Postprandial blood glucose post-treatment [1, 3]: 11.02 mmol/L
Fasting blood glucose pre-treatment ([1]; treatment group, baseline): 9.43 mmol/L
Postprandial blood glucose pre-treatment ([1]; treatment group, baseline): 15.2 mmol/L
HbA1c pre-treatment ([1]; treatment group, baseline before beinaglutide 600 μg/d + metformin): 7.97%
Fasting blood glucose decreased by ([1]; treatment group, beinaglutide 600 μg/d s.c. + metformin, 12 weeks): 1.98 mmol/L
Body weight pre-treatment ([2]; Patient 1, baseline): 61 kg
HbA1c pre-treatment ([2]; Patient 1, baseline): 9.4%
Body weight post-treatment ([2]; Patient 1: insulin (0.5 u/kg) + metformin (0.5 g tid) 1 week, then beinaglutide monotherapy (12.5 μg/h continuous s.c. + 100 μg before each of three meals) 1 month): 57.5 kg
Body weight pre-treatment ([2]; Patient 2, baseline): 99 kg
HbA1c pre-treatment ([2]; Patient 2, baseline): 8.8%
Body weight post-treatment [2, 4]: 93 kg
HbA1c post-treatment [2, 4]: 6.3%
Body weight pre-treatment ([2]; Patient 3, baseline): 88 kg
HbA1c pre-treatment ([2]; Patient 3, baseline): 12.3%
Body weight post-treatment ([2]; Patient 3: insulin (0.5 u/kg) 1 week, then beinaglutide regimen + metformin (0.5 g tid) 1 month): 83 kg
Body weight pre-treatment ([2]; Patient 4, baseline): 80 kg
HbA1c pre-treatment ([2]; Patient 4, baseline): 9.3%
Body weight post-treatment ([2]; Patient 4: insulin (0.5 u/kg) 1 week, then beinaglutide regimen + metformin (0.5 g tid) + insulin glargine (16 u s.c. before bed) 1 month): 73 kg
Body weight pre-treatment ([2]; Patient 5, baseline): 80 kg
HbA1c pre-treatment ([2]; Patient 5, baseline): 7.3%
Body weight post-treatment ([2]; Patient 5: beinaglutide monotherapy (12.5 μg/h continuous s.c. + 100 μg before each of three meals) 1 month): 77 kg
Body weight pre-treatment ([2]; Patient 6, baseline): 85 kg
HbA1c pre-treatment ([2]; Patient 6, baseline): 9.7%
Body weight post-treatment ([2]; Patient 6: insulin (0.5 u/kg) 1 week, then beinaglutide monotherapy (0.6 mg/d) 1 month): 78 kg
Overall outcome on body weight and HbA1c ([2]; six patients, continuous 300 μg/d + 100 μg tid before meal, alone or with metformin or metformin and insulin glargine, one month): significant weight loss and/or HbA1c decrease; also recorded: achieved decrease in HbA1c and/or body weight
